Measurements: patent US11123355B2, “Antiviral benzyl-amine phosphodiamide compounds” (Merck Sharp & Dohme Corp., priority 2016, dated 2021)
Like-named read-outs stand apart in the source and are kept apart here.

Tested on: HIV-1 (H9/IIB strain)
Test: Multiple Round HIV-1 Infection Assay (Viking Assay) in MT4-GFP cells
Format: cell-based
Settings: inhibition of reproductive ratio R0
Method in brief: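 MT-4 cells with tat/rev-dependent GFP reporter infected overnight with virus at MOI ~0.01, then incubated in RPMI with 10% or 50% normal human serum with 10-point 3-fold dilutions (typically 8.4 μM–0.42 nM final). Green cells counted at ~48 and ~72 h to give R0; IC50 from 4-parameter fit of R0 inhibition.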

[1] = MT4-GFP cells infected with HIV-1, 10% normal human serum, read-out: Viking, IC50 (10% NHS)
[2] = MT4-GFP cells infected with HIV-1, 50% normal human serum, read-out: Viking, IC50 (50% NHS)

Molecule	IC50 [1] [nM]	IC50 [2] [nM]
CCCOC(=O)C(C)(C)NP(=O)(CO[C@H](C)Cn1cnc2c(N)ncnc21)N[C@H](C)c1ccc(C#N)cc1 (stereo partly drawn) [Example 31A, propyl 2-(((R)-((((R)-1-(6-amino-9H-purin-9-yl)propan-2-yl)oxy)methyl)(((R)-1-(4-cyanophenyl)ethyl)amino)phosphoryl)ami-no)-2-methylpropanoate and propyl 2-(((S)-((((R)-1-(6-amino-9H-purin-9-yl)propan-2-yl)oxy)methyl)(((R)-1-(4-cyanophenyl)ethyl)amino)phosphoryl)ami-no)-2-methylpropanoate]	83	770
CCCOC(=O)C(C)(C)NP(=O)(CO[C@H](C)Cn1cnc2c(N)ncnc21)N(C)Cc1ccc(C(C)C)cc1 (stereo partly drawn) [Example 32A, propyl 2-(((R)-((((R)-1-(6-amino-9H-purin-9-yl)propan-2-yl)oxy)methyl)((4-isopropylbenzyl)(methyl)amino)phos-phoryl)amino)-2-methylpropanoate and propyl 2-(((S)-((((R)-1-(6-amino-9H-purin-9-yl)propan-2-yl)oxy)methyl)((4-isopropylbenzyl)(methyl)amino)phos-phoryl)amino)-2-methylpropanoate]	1.7	6.7
CCCOC(=O)C(C)(C)NP(=O)(CO[C@H](C)Cn1cnc2c(N)ncnc21)N(C)Cc1ccc(C(C)C)cc1 (stereo partly drawn) [Example 32B, propyl 2-(((R)-((((R)-1-(6-amino-9H-purin-9-yl)propan-2-yl)oxy)methyl)((4-isopropylbenzyl)(methyl)amino)phos-phoryl)amino)-2-methylpropanoate and propyl 2-(((S)-((((R)-1-(6-amino-9H-purin-9-yl)propan-2-yl)oxy)methyl)((4-isopropylbenzyl)(methyl)amino)phos-phoryl)amino)-2-methylpropanoate]	10	41
CCCOC(=O)C(C)(C)N[P@](=O)(CO[C@H](C)Cn1cnc2c(N)ncnc21)N(C)[C@H](C)c1ccc(OC(F)(F)F)cc1 [Example 33A, propyl 2-(((R)-((((R)-1-(6-amino-9H-purin-9-yl)propan-2-yl)oxy)methyl)(methyl((R)-1-(4-(trifluoromethoxy)phenyl)ethyl)amino)phos-phoryl)amino)-2-methylpropanoate and propyl 2-(((S)-((((R)-1-(6-amino-9H-purin-9-yl)propan-2-yl)oxy)methyl)(methyl((R)-1-(4-(trifluoromethoxy)phenyl)ethyl)amino)phos-phoryl)amino)-2-methylpropanoate]	25	84
CC(C)OC(=O)C(C)(C)NP(=O)(CO[C@H](C)Cn1cnc2c(N)ncnc21)N[C@H](C)c1ccc(OC(F)(F)F)cc1 (stereo partly drawn) [Example 34A, isopropyl 2-(((R)-((((R)-1-(6-amino-9H-purin-9-yl)propan-2-yl)oxy)methyl)(((R)-1-(4-(trifluoromethoxy)phenyl)ethyl)amino)phos-phoryl)amino)-2-methylpropanoate and isopropyl 2-(((S)-((((R)-1-(6-amino-9H-purin-9-yl)propan-2-yl)oxy)methyl)(((R)-1-(4-(trifluoromethoxy)phenyl)ethyl)amino)phos-phoryl)amino)-2-methylpropanoate]	760	4200
CC(C)OC(=O)C(C)(C)N[P@@](=O)(CO[C@H](C)Cn1cnc2c(N)ncnc21)N[C@H](C)c1ccc(Cl)cc1 [Example 35A, isopropyl 2-(((R)-((((R)-1-(6-amino-9H-purin-9-yl)propan-2-yl)oxy)methyl)(((R)-1-(4-chlorophenyl)ethyl)amino)phosphoryl)ami-no)-2-methylpropanoate and isopropyl 2-(((S)-((((R)-1-(6-amino-9H-purin-9-yl)propan-2-yl)oxy)methyl)(((R)-1-(4-chlorophenyl)ethyl)amino)phosphoryl)ami-no)-2-methylpropanoate]	280	1600
CC(C)OC(=O)C(C)(C)N[P@@](=O)(CO[C@H](C)Cn1cnc2c(N)ncnc21)NC1(c2ccc(Cl)cc2)CC1 [Example 37A, isopropyl 2-(((R)-((((R)-1-(6-amino-9H-purin-9-yl)propan-2-yl)oxy)methyl)((1-(4-chlorophenyl)cyclopropyl)amino)phos-phoryl)amino)-2-methylpropanoate and isopropyl 2-(((S)-((((R)-1-(6-amino-9H-purin-9-yl)propan-2-yl)oxy)methyl)((1-(4-chlorophenyl)cyclopropyl)amino)phos-phoryl)amino)-2-methylpropanoate]	110	720
isopropyl 2-(((R)-((((R)-1-(6-amino-9H- purin-9-yl)propan-2-yl)oxy)methyl)((2-(4- chlorophenyl)propan-2- yl)amino)phosphoryl)amino)-2- methylpropanoate and isopropyl 2-(((S)-((((R)-1-(6-amino-9H- purin-9-yl)propan-2-yl)oxy)methyl)((2-(4- chlorophenyl)propan-2- yl)amino)phosphoroyl)amino)-2- methylpropanoate [Example 36B]	200	1100
propyl 2-(((R)-((((R)-1-(6-amino-9H-purin- 9-yl)propan-2-yl)oxy)methyl)((3- fluorobenzyl)amino)phosphoryl)amino)-2- methylpropanoate and propyl 2-(((S)-((((R)-1-(6-amino-9H-purin- 9-yl)propan-2-yl)oxy)methyl)((3- fluorobenzyl)amino)phosphoryl)amino)-2- methylpropanoate [Example 8A]	110	680
propyl 2-(((R)-((((R)-1-(6-amino-9H-purin- 9-yl)propan-2-yl)oxy)methyl)((3- fluorobenzyl)amino)phosphoryl)amino)-2- methylpropanoate and propyl 2-(((S)-((((R)-1-(6-amino-9H-purin- 9-yl)propan-2-yl)oxy)methyl)((3- fluorobenzyl)amino)phosphoryl)amino)-2- methylpropanoate [Example 8B]	76	680
propyl 2-(((R)-((((R)-1-(6-amino-9H-purin- 9-yl)propan-2-yl)oxy)methyl)((4- cyanobenzyl)amino)phosphoryl)amino)-2- methylpropanoate and propyl 2-(((S)-((((R)-1-(6-amino-9H-purin- 9-yl)propan-2-yl)oxy)methyl)((4- cyanobenzyl)amino)phosphoryl)amino)-2- methylpropanoate [Example 6A]	70	660
propyl 2-(((R)-((((R)-1-(6-amino-9H-purin- 9-yl)propan-2-yl)oxy)methyl)((4- cyanobenzyl)amino)phosphoryl)amino)-2- methylpropanoate and propyl 2-(((S)-((((R)-1-(6-amino-9H-purin- 9-yl)propan-2-yl)oxy)methyl)((4- cyanobenzyl)amino)phosphoryl)amino)-2- methylpropanoate [Example 6B]	250	850
propyl 2-(((R)-((((R)-1-(6-amino-9H-purin- 9-yl)propan-2-yl)oxy)methyl)((4- isopropylbenzyl)amino)phosphoryl)amino)- 2-methylpropanoate and propyl 2-(((S)-((((R)-1-(6-amino-9H-purin- 9-yl)propan-2-yl)oxy)methyl)((4- isopropylbenzyl)amino)phosphoryl)amino)- 2-methylpropanoate [Example 5B]	48	240
